The assay addresses T1, human CPT1A (Homo sapiens, UniProt P50416).
T1 construct: made in house; host or cells: Saccharomyces cerevisiae (pESC-trp) or cultured mammalian cells (pCDNA3.1); mitochondrial extract
T1 sequence (P50416 1-773): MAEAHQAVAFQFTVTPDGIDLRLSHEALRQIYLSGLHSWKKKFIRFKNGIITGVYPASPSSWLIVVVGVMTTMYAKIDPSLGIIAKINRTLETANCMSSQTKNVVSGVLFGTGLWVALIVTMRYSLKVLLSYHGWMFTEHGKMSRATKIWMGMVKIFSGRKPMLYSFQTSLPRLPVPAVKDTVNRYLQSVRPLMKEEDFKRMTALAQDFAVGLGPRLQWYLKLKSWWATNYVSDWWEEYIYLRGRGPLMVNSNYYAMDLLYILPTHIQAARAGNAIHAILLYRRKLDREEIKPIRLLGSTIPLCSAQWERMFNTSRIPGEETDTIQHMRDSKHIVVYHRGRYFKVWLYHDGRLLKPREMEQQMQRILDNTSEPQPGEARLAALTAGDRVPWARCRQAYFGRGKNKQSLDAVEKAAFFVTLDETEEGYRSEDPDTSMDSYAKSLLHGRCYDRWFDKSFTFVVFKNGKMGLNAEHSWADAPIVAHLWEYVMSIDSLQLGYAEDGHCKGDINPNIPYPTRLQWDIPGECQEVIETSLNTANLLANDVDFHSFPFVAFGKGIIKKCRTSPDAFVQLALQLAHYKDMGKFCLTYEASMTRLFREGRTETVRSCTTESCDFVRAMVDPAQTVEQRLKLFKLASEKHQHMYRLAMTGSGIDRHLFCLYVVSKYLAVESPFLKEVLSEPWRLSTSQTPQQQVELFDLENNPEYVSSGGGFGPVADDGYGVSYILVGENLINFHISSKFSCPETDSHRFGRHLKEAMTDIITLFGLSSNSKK
In words: Human CPT1A LC/MS assay. In kind it is biochemical. As to conditions: human CPT1A LC/MS assay, dose response format. The source says: Nucleotide sequences encoding human CPT1 enzymes were individually cloned into the yeast expression vector pESC-trp at the Cla1 (5′ terminus) and Pac1 (3′ terminus) restriction sites by PCR amplification of the open reading frame using oligonucleotide primers designed to encode the wild-type CPT1 protein sequence. Standard molecular biology techniques were used to transform and express the CPT1 proteins in the yeast Saccharomyces cerevisiae. The yeast cells were lysed by enzymatic degradation of the cell wall by Zymolase, and the mitochondria were isolated by standard biochemical techniques. The integrity of the isolated mitochondria was monitored by determining the activity of succinate dehydrogenase in the mitochondrial preparations. The mitochondrial extracts were stored at −80° C. in buffer containing 10 mM HEPES pH 7.4 and 250 mM sucrose.
Human CPT1 (A, B, C) genes were additionally cloned into the pCDNA3.1 vector individually for expression in cultured mammalian cells. Cells expressing the exogenous CPT1A were identified and grown under standard conditions. Mammalian cells were harvested, and mitochondrial extracts prepared using standard biochemical methods. The mitochondrial extracts were stored at −80° C. in buffer containing 10 mM HEPES pH 7.4 and 250 mM sucrose.
Assays were performed in 96-well plate format. Each 100 μL reaction contained 40 mM KCl, 50 mM TrisHCl pH 7.5, and 250 mM mannitol (Assay Buffer), and 1.6 μg protein of an extract, 20 μM palmitoyl-CoA, 50 μM L-carnitine, and 10 ug/mL BSA. Reactions were incubated at room temperature and stopped after 10 minutes by extraction with 200 μL of water saturated n-butanol containing myristoyl carnitine (500 nM) as an internal standard. The samples were thoroughly mixed, and the phases separated by centrifugation. Samples were prepared for analysis with a 10 fold dilution of the n-butanol phase containing the reaction product palmitoyl carnitine into a 50:50 (acetonitrile:water) solvent for analysis. […] of prepared sample was separated on a Phenomenex Jupiter 5μ C4 reverse-phase column using an Agilent 1100 HPLC with a gradient from 50% acetonitrile (0.5% acetic acid) to 100% acetonitrile and quantified by detection with a Bruker Esquire 3000plus mass spectrometer. The abundance of the palmitoyl carnitine product was determined relative to the internal standard and the actual quantity of palmitoyl carnitine can be determined from a standard curve prepared using the n-butanol solution containing the internal standard.
Compounds were evaluated in two formats, a screening format, and a dose response format. The screening format was performed by adding 25 μL compound in 20% DMSO and Assay Buffer to 25 μL of extract containing […] and Assay Buffer, followed by a 10 minute incubation at room temperature. 50 μL of 40 μM palmitoyl-CoA in Assay Buffer was added to the reaction mixture, mixed and incubated for 10 minutes at room temperature. A negative control for activity was also performed where the carnitine was omitted from the reaction. A positive control for activity was also performed by omitting compound from the solution containing 20% DMSO and Assay Buffer. The reaction mixture was extracted and analyzed as described above. The inhibition by compound was determined by comparing the control relative activity to the relative activity observed in wells containing the compound. Relative activity was determined by subtracting the relative intensity (area palmitoyl carnitine/area myristoyl carnitine) observed in the negative control from the relative intensity observed in the experimental well, and dividing by the relative activity observed in the positive control.
[formula] Compound characterization by dose response format was performed using the above described assay conditions and a 16 point compound titration in 2 fold compound dilution steps. The DMSO concentration was kept constant at 20% (v/v) for all compound concentrations.
On to `C[N+](C)(C)C[C@@H](CC(=O)[O-])NC(=O)c1ccc(C#Cc2ccccc2)o1` [Example S3, (R)-3-(5-(phenylethynyl)furan-2-carboxamido)-4-(trimethylammonio)-butanoate], for which the 50% inhibitory concentration (IC50) (usually the concentration at which inhibition is half-maximal) lay within 10 to 100 µM.
In turn, `CCCOc1ccc(C(=O)N[C@H](CC(=O)[O-])C[N+](C)(C)C)cc1` [Example S1, (R)-3-(4-propoxybenzamido)-4-(trimethylammonio)butanoate] returned an IC50 of 100 to 1000 µM.
Consider `C[N+](C)(C)C[C@@H](CC(=O)[O-])NC(=O)Nc1cc(C(F)(F)F)ccc1Cl` [Example S85, (R)-3-(3-(2-chloro-5-(trifluoromethyl)phenyl)ureido)-4-(trimethyl-ammonio)butanoate], for which the IC50 lay in the range of 1000 to 2500 µM.
On to `CCCCCc1ccc(NS(=O)(=O)N[C@H](CC(=O)O)C[N+](C)(C)C)cc1` [Example S91, (R)-3-(N-(4-pentylphenyl)sulfamoylamino)-4-(trimethylammonio)butanoate], for which the 50% inhibitory concentration (IC50) was ≤ 1 µM.
Under `C[N+](C)(C)C[C@@H](CC(=O)O)NS(=O)(=O)c1ccc(CCc2ccccc2)s1` [Example S79, (R)-3-carboxy-N,N,N-trimethyl-2-(5-phenethylthiophene-2-sulfonamido)-propan-1-aminium 2,2,2-trifluoroacetate] stands 10 to 100 µM.
The same measure for `Cc1ccc(C#Cc2ccc(S(=O)(=O)N[C@H](CC(=O)O)C[N+](C)(C)C)s2)cc1` [Example S80, (R)-3-carboxy-N,N,N-trimethyl-2-(5-(p-tolylethynyl)thiophene-2-sulfonamido)propan-1-aminium 2,2,2-trifluoroacetate]: 10 to 100 µM.
Under `C[N+](C)(C)C[C@@H](CC(=O)O)NC(=O)c1ccc(CCc2ccsc2)s1` [Example S98, (R)-3-carboxy-N,N,N-trimethyl-2-(5-(2-(thiophen-3-yl)ethyl)thiophene-2-carboxamido)propan-1-aminium 2,2,2-trifluoroacetate] stands ≤ 1 µM; under `C[N+](C)(C)C[C@@H](CC(=O)[O-])NC(=O)Nc1ccc(Oc2ccccc2)cc1` [Example S8, (R)-3-(3-(4-phenoxyphenyl)ureido)-4-(trimethylammonio)butanoate], 10 to 100 µM; under `C[N+](C)(C)C[C@@H](CC(=O)O)NS(=O)(=O)c1ccc(C#Cc2ccccc2)s1` [Example S78, (R)-3-carboxy-N,N,N-trimethyl-2-(5-(phenylethynyl)thiophene-2-sulfonamido)propan-1-aminium 2,2,2-trifluoroacetate], 100 to 1000 µM.
As for `C[N+](C)(C)C[C@@H](CC(=O)O)NC(=O)c1ccc(C#Cc2ccsc2)o1` [Example S116, (R)-3-carboxy-N,N,N-trimethyl-2-(5-(thiophen-3-ylethynyl)furan-2-carboxamido)propan-1-aminium 2,2,2-trifluoroacetate], the concentration for half-maximal inhibition (IC50) was 10 to 100 µM.
The same measure for `C[N+](C)(C)C[C@@H](CC(=O)[O-])NC(=O)Nc1ccc(-c2cccs2)cc1` [Example S11, (R)-3-(3-(4-(thiophen-2-yl)phenyl)ureido)-4-(trimethylammonio)butanoate]: 100 to 1000 µM; for `C[N+](C)(C)C[C@@H](CC(=O)[O-])NC(=O)C(F)(F)c1ccccc1` [Example S69, (R)-3-(2,2-difluoro-2-phenylacetamido)-4-(trimethylammonio)butanoate]: 100 to 1000 µM.
`CCCCCCCCc1cccc(N(C)S(=O)(=O)N[C@H](CC(=O)O)C[N+](C)(C)C)c1` [Example S113, (R)-3-carboxy-N,N,N-trimethyl-2-(N-methyl-N-(3-octylphenyl)sulfamoylamino)propan-1-aminium 2,2,2-trifluoroacetate] displayed an IC50 of 1 to 10 µM.
The same measure for `C[N+](C)(C)C[C@@H](CC(=O)[O-])NC(=O)c1ccc(OCC(F)(F)F)nc1` [Example S52, (R)-3-(6-(2,2,2-trifluoroethoxy)nicotinamido)-4-(trimethylammonio)butanoate]: 1000 to 2500 µM.
Under `C[N+](C)(C)C[C@@H](CC(=O)O)NC(=O)c1cccc(CCc2ccccc2)c1` [Example S46, (R)-3-(3-phenethylbenzamido)-4-(trimethylammonio)butanoate] stands 100 to 1000 µM.
The compound `CCCCCc1ccc(S(=O)(=O)N[C@H](CC(=O)O)C[N+](C)(C)C)cc1` [Example S23, (R)-3-(4-pentylphenylsulfonamido)-4-(trimethylammonio)butanoate 2,2,2-trifluoroacetate] showed an IC50 of 1 to 10 µM.
On to `C[N+](C)(C)C[C@@H](CC(=O)O)NC(=O)c1ccc(CCc2ccsc2)o1` [Example S124, (R)-3-carboxy-N,N,N-trimethyl-2-(5-(2-(thiophen-3-yl)ethyl)furan-2-carboxamido)propan-1-aminium 2,2,2-trifluoroacetate], for which the IC50 was ≤ 1 µM.
The same measure for `CN(C(=O)N[C@H](CC(=O)[O-])C[N+](C)(C)C)c1ccc(Oc2ccccc2)cc1` [Example S34, (R)-3-(3-methyl-3-(4-phenoxyphenyl)ureido)-4-(trimethyl-ammonio)butanoate]: 100 to 1000 µM.
The same measure for `CCCCCCCC#Cc1ccc(NS(=O)(=O)N[C@H](CC(=O)[O-])C[N+](C)(C)C)cc1` [Example S104, (R)-3-(N-(4-(non-1-ynyl)phenyl)sulfamoylamino)-4-(trimethylammonio) butanoate]: 1 to 10 µM.
The same measure for `CC(=O)Nc1ccc(C(=O)N[C@H](CC(=O)[O-])C[N+](C)(C)C)cc1` [Example S53, (R)-3-(4-acetamidobenzamido)-4-(trimethylammonio)butanoate]: > 2500 µM; for `C[N+](C)(C)C[C@@H](CC(=O)[O-])NC(=O)c1ccc(CCc2ccccc2)cc1` [Example S64, (R)-3-(4-phenethylbenzamido)-4-(trimethylammonio)butanoate]: 10 to 100 µM.
For `C[N+](C)(C)C[C@@H](CC(=O)O)NC(=O)Nc1ccccc1I` [Example S99, (R)-3-carboxy-2-(3-(2-iodophenyl)ureido)-N,N,N-trimethylpropan-1-aminium], the half-maximal inhibitory concentration (IC50) is > 2500 µM.
The same measure for `C[N+](C)(C)C[C@@H](CC(=O)[O-])NC(=O)c1ccc(Oc2ccccc2)nc1` [Example S50, (R)-3-(6-phenoxynicotinamido)-4-(trimethylammonio)butanoate]: 100 to 1000 µM; for `C[N+](C)(C)C[C@@H](CC(=O)O)NC(=O)Nc1ccc(C(=O)c2ccccc2)cc1` [Example S16, (R)-2-(3-(4-Benzoylphenyl)ureido)-3-carboxy-N,N,N-trimethylpropan-1-aminium acetate]: 10 to 100 µM.
`C[N+](C)(C)C[C@@H](CC(=O)O)NC(=O)c1ccc(CS(=O)(=O)Cc2ccccc2)o1` [Example S61, (R)-3-(5-(benzylsulfonylmethyl)furan-2-carboxamido)-4-(trimethyl-ammonio)butanoate 2,2,2-trifluoroacetate] had an IC50 of 100 to 1000 µM.

(Values after US8410150B2, “Inhibitors of carnitine palmitoyltransferase and treating cancer” (University Health Network, priority 2007, dated 2013).)
